1 compound from publication PMC9415509, “Pro-Apoptotic Antitumoral Effect of Novel Acridine-Core Naphthoquinone Compounds against Oral Squamous Cell Carcinoma” (Molecules, 2022) can be followed below.

Data set [1] concerns SCC9 cells. As to the kind of experiment: ROS production (ROS-Glo H2O2 assay). The class given is cell-based, human. The note with it: SCC9, 2 × IC50, 3, 6, 24 and 48 h. How it is done:
ROS production. The hydrogen peroxide (H2O2) luminescence assay was performed using the ROS-Glo™ H2O2 assay kit (Promega Corporation, Madison, WI, USA). […] A plate with wells without cells was used as a control. The cells and cell-free wells remained in treatment at the times of interest and, 2 h before the completion of the times, the well volumes were removed to reduce to 40 µL per well. Then, the positive control of menadione, a polycyclic aromatic ketone based on 1,4-naphthoquinone, was used to treat its respective well, and H2O2 substrate was added for all treatments, followed by the incubation of the plate for the 2 h remaining. After the times of 3, 6, 24, and 48 h, the detection solution was added, and the plates remained at room temperature for 20 min, following the reading in the luminometer.

In data set [2] the test system is SCC9 cells. The experiment in a line: Phosphatidylserine exposure analysis (Annexin V/PI). The note with it: SCC9, 48 h. In kind it is cell-based, human. The procedure:
Phosphatidylserine exposure analysis (apoptosis). Cells of the SCC9 cell line were plated in 6-well plates (5 × 10^5 cells/well), trypsinized 48 h after treatment, labeled using the Annexin V-FITC Apoptosis Detection Kit according to the manufacturer’s protocol (#BMS500FI/300, Invitrogen), and analyzed by FACScalibur flow cytometry as in [50]. Furthermore, 5 × 10^4 SCC9 cells were plated in a 24-well plate containing 1 mL of DMEM/F12 with 10% FBS per well. CellEvent™ Caspase-3/7 Reagent (#R37111, Invitrogen) was diluted in a culture medium according to the manufacturer’s instructions. […] The cells were analyzed by flow cytometry at the time of 48 h of treatment.

Data set [3] concerns Primary normal human gingival fibroblasts. As to the kind of experiment: MTT cell viability assay, normal fibroblasts. In kind it is cell-based. The note with it: Homo sapiens, Fibroblast; primary gingival fibroblasts, 48 h, MTT; read-out: Primary Gingival Fibroblast IC50. How it is done: (§1) Cells and reagents. Human SCC-4, SCC-9, and SCC-25 cells, derived from a human oral tongue SCC (squamous cell carcinoma) were obtained from the ATCC (CRL-1624, CRL-1629, and CRL-1628, respectively) and maintained in 1:1 DMEM/F12 (Dulbecco’s modified Eagle medium and Ham’s F12 medium; Gibco (Thermo Fisher, Waltham, MA, USA)) supplemented with 10% (v/v) FBS (fetal bovine serum; Invitrogen, Thermo Fisher, Waltham, MA, USA) and 400 ng/mL hydrocortisone (Sigma-Aldrich Co., St. Louis, MO, USA). Primary normal human gingival fibroblasts were obtained from the ATCC (PCS-201-018) and maintained in DMEM supplemented with 10% (v/v) FBS and were used in a maximum of six passages. The cells were grown in a humidified environment containing 5% CO2 at 37 °C. […] Carboplatin stock was prepared in water (Fauldcarbo®; LibbsFarmacêutica, São Paulo, SP, Brazil) and was used as a standard anticancer compound.
(§2) Cell viability assay (cytotoxicity) and compound stability assay. The viability of SCC cell lines and primary human fibroblast cells was evaluated using the MTT assay as in [48]. Briefly, the cells were grown in triplicates in 96-well plates (5 × 10^3 cells/well) until confluence. Then, the medium was removed, fresh medium was added, and the cells were returned to the incubator in the presence of different compounds. DMSO at the same concentrations was used as a 100% cell viability control. After 48 h, the cells were incubated with 5 mg/mL MTT reagent (3-(4,5-dimethyl-2-thiazolyl)-2,5-diphenyl-2-H-tetrazolium bromide) (Sigma-Aldrich Co., St. Louis, MO, USA) for 3.5 h. After that, formazan crystals were dissolved in MTT solvent solution (DMSO/methanol 1:1 v/v) and the absorbance at 560 nm was evaluated using an EPOCH microplate spectrophotometer (BioTek Instruments, Winooski, VT, USA) with the background absorbance at 670 nm subtracted.
(§3) Statistical analysis, IC50 calculation. The data are presented as means ±\SD. IC50 values for the MTT assays were obtained by nonlinear regression using the […] 5.0 program (Intuitive Software for Science, San Diego, CA, USA) from at least three independent experiments. A dose–response (inhibitor) vs. response curve using the least squares method was used to determine the IC50, SD, and R^2 of the data. The selectivity index was calculated as SI = IC50 of the compound in normal oral fibroblast cells/IC50 of the same compound for each oral cancer cell line (SCC-4, SCC-9, and SCC-25) and the mean was calculated when indicated.

Data set [4] in a line: MTT cell viability assay, normal fibroblasts. In kind it is cell-based, human. The note with it: human, primary normal human gingival fibroblasts (ATCC PCS-201-018). The procedure: as §1, §2, §3
(In general: Formazan colour is commonly taken as a measure of viable cells.)

The subject of a further data set is SCC4 OSCC cell line. The experiment in a line: MTT cell viability assay (cytotoxicity), SCC4. The class given is cell-based, human. The procedure: as §1, §2, §3
Data set [5] concerns SCC9 cells. As to the kind of experiment: SubG1 analysis (DNA fragmentation), flow cytometry. The class given is cell-based, human. The note with it: SCC9, 72 h of treatment, PI staining. How it is done:
Cell cycle and SubG1 analysis. To evaluate the action of compound 4e on the cell cycle and DNA fragmentation, cells of the SCC9 cell line were plated in a 6-well plate (5 × 10^5 cells/well). After 48 (cell cycle) or 72 h (DNA fragmentation) of treatment, the cells were trypsinized and stained with propidium iodide (75 µM) in the presence of NP-40. The DNA content was analyzed by collecting 10,000 events using a FACScalibur flow cytometer. The data were analyzed using CellQuest (BD Biosciences, Franklin Lakes, NJ, USA) and FlowJo (Tree Star Inc., Ashland, OR, USA) software as in [49].
(In general: A flow cytometer gives signals particle by particle.)

In a further data set the test system is SCC9 (OSCC cell). As to the kind of experiment: MTT cell viability assay (cytotoxicity), SCC9. The class given is cell-based, human. The procedure: as §1, §2, §3
The next data set concerns SCC9-LC3-GFP cells. As to the kind of experiment: Autophagy assay (LC3-GFP puncta). In kind it is cell-based, human. The note with it: 4e 2 × IC50, 48 h; CPP 20% (v/v) 4–6 h. The procedure:
Autophagy assay. To determine if compound 4e induces autophagy, SCC9 cells were stably transduced with LC3-GFP expressing plasmid. For the generation of SCC9 cell lines harboring LC3-GFP, HEK293FT cells were transfected with 3 µg of each helper plasmids (pMDLglpRRE, pHCMV g, and pRSVrev) and 8 µg of the pLV-CMV-SV40-Puro-GFP-LC3 using calcium phosphate and 25 µM chloroquine. Twenty-four hours later, a lentivirus-containing medium was harvested, supplemented with 8 µg/mL of Polybrene, and used to transduce SCC9 cells. Twenty-four hours later, the transduced cells were selected with 5 µg/mL of Puromycin for 7 days. The cells were then cultured with 2.5 µg/mL Puromycin for further experiments. The lentiviral construct encoding pLV-CMV-SV40-Puro-GFP-LC3 was a gift from Dr. SilvyaStuchi Maria Engler. […] As a positive control, calcium phosphate precipitates (CPP) were prepared by adding CaCl2 dropwise to Na2HPO4 (in Hepes, pH 7.05) as previously described. CPP 20% (v/v) was administrated to the cells 4–6 h before analysis.

Where “and” joins values, the source holds several entries; their conditions need not be identical. Identical values can stand only once.

In general, IC50 refers to the concentration that inhibits the measured activity by half. Usually viability stands for the share of living cells, or the viability signal relative to a control. A high value points to better survival. With `CC1(C)CC(=O)C2=C(C1)NC1=C(C(=O)c3ccccc3C1=O)C2c1ccc(Cl)cc1Cl` (stereo not shown) [4e, 12-(2,4-dichlorophenyl)-3,3-dimethyl-3,4-dihydrobenzo[b]acridine-1,6,11(2H,5H,12H)-trione], the ROS production entry in the data set with SCC9 cells [1] is recorded as “low production of ROS”. Moreover, the “Annexin V and Annexin V + PI staining” value with SCC9 cells [2] was “increased single (Annexin V) and double (Annexin V + PI) staining”. Also, the IC50 in data set [3] was found to be 88 µM; in the data set on SCC4 OSCC cell line (Homo sapiens, SCC-4, SCC4, 48 h, MTT, read-out: Oral Tumor Cells SCC4 IC50), 53.8 µM; in the data set with SCC9 (OSCC cell) (Homo sapiens, SCC-9, SCC9, 48 h, MTT (Table 1), read-out: SCC9—Oral Cancer IC50), 14.7 µM. The same compound displayed a viability at 48 h in data set [4] of more than 75%. The “SCC4 S.I.” value in the data set with SCC4 OSCC cell line (IC50 normal oral fibroblasts / IC50 SCC4) is reported as 1.6. In addition, the “DNA fragmentation (Sub-G1 DNA-content), cells” value in the data set on SCC9 cells [5] is 25.5% and ~ 25%. The “SCC9 S.I.” value with SCC9 (OSCC cell) (IC50 normal oral fibroblasts / IC50 SCC9) is listed as 6.0. Moreover, in the data set on SCC9-LC3-GFP cells, the “LC3-GFP puncta formation (autophagy)” value is on record as “neither DMSO nor 4e were able to induce this cell death process”.
